Test [1] deals with Parascaris sp. muscle flap. The experiment in a line: Parascaris sp. body muscle flap isometric contraction assay. As to the method: For the contraction assay, adult female Parascaris sp. worms were collected weekly from the slaughterhouse at Vrčin, Belgrade, Serbia. Worms were maintained in Locke’s solution, composition (mM): NaCl 155, KCl 5, CaCl2 2, NaHCO3 1.5 and glucose 5, at a temperature of 32 °C. The Locke’s solution was changed twice daily, and each batch of worms was used within 2 days of collection. Parascaris muscle flaps for the contractions were prepared by dissecting the anterior part of the worm, 3–4 cm caudal to the head (Figure 1b). Each flap (always the same length of 1 cm) was monitored isometrically by attaching a force transducer in an experimental bath maintained at 37 °C, containing 20 mL Ascaris Perienteric Fluid Ringer/APF Ringer (mM: NaCl, 23; Na-acetate, 110; KCl, 24; CaCl2, 6; MgCl2, 5; glucose, 11; HEPES, 5; pH 7.6) and bubbled with room air. After dissection, the preparations were allowed to equilibrate for 15 min under an initial tension of 1.5 g. […] Responses for each concentration were expressed in grams of tension (g), produced by each individual flap preparation. The effect of carvacrol (300 μM) on the acetylcholine dose–response plots was determined. Contractions were monitored on a PC using a BioSmart interface and eLAB software (ElUnit, Belgrade, Serbia). The system allows real-time recording, display and analysis of experimental data. Sigmoid dose–response curves for each individual flap preparation at each concentration of the antagonist were described by the Hill equation.
(§1) The results of the contraction assay are expressed as means ± S.E. in grams (g) of tension. […] GraphPad Prism® Software (San Diego, CA, USA) was used to estimate the constants EC50 and nH by non-linear regression for each preparation. We determined the mean contraction responses to each concentration of acetylcholine. Whole cell current electrophysiology responses were analyzed using the pCLAMP 10.4 package (Molecular Devices). […] One-way analysis of variance (ANOVA) was applied for the comparison of the differences between the EC50 value and the maximal effect (Rmax). Differences were considered significant when the p value was < 0.05. The statistical analysis was conducted using GraphPad Prism® software (San Diego, CA, USA), while all values are expressed as mean ± standard error (S.E.).

Test [2] has as its target Parascaris sp. ACR-26/27 M-AChR (Parascaris equorum, UniProt A0A0U2ES47+A0A0U2ES58). Kind of test: Two-electrode voltage-clamp on Parascaris sp. ACR-26/27 M-AChR expressed in Xenopus laevis oocytes. Format: cell-based. As to the method:
(§2) Parascaris sp. ACR-26/27 M-AChR as well as Parascaris sp. and A. suum ACR-16 N-AChRs were expressed in Xenopus laevis oocytes as previously described. Briefly, Xenopus laevis defolliculated oocytes were obtained from Ecocyte Bioscience (Germany). Oocytes were micro-injected with 36 nL of cRNA mixes containing 50 ng/µL of each cRNA encoding subunits of interest and three H. contortus ancillary factors (Hco-RIC-3.1, Hco-UNC-50 and Hco-UNC-74). After 3–4 days of incubation, the oocytes were assayed under voltage clamp at −60 mV, and electrophysiological recordings were performed as described previously. The carvacrol concentration-dependent inhibition of acetylcholine current response was assessed for Parascaris- and Asu-ACR-16 channels with the protocol described by Zheng et al..
as §1
On the technique in general: Two-electrode voltage clamp is typically applied to oocytes expressing channels or transporters.

For test [3], the target named is Parascaris sp. ACR-16 N-AChR (Parascaris equorum, UniProt A0A3S9VMQ8). The experiment in a line: Two-electrode voltage-clamp on Parascaris sp. ACR-16 N-AChR expressed in Xenopus oocytes. As to conditions: for reduction of ACh maximal response amplitude: p < 0.05. Format: cell-based. As to the method: as §2, §1
Test [4] has as its system A. suum innervated muscle strips. As to conditions: 300 µM of carvacrol; cited from earlier work.
A further test addresses T1, A. suum ACR-16 N-AChR (Ascaris suum, UniProt F1KYJ9).
T1 construct: expressed in transfected cells; host or cells: Xenopus laevis oocytes (cRNA micro-injection)
T1 sequence (F1KYJ9 1-504): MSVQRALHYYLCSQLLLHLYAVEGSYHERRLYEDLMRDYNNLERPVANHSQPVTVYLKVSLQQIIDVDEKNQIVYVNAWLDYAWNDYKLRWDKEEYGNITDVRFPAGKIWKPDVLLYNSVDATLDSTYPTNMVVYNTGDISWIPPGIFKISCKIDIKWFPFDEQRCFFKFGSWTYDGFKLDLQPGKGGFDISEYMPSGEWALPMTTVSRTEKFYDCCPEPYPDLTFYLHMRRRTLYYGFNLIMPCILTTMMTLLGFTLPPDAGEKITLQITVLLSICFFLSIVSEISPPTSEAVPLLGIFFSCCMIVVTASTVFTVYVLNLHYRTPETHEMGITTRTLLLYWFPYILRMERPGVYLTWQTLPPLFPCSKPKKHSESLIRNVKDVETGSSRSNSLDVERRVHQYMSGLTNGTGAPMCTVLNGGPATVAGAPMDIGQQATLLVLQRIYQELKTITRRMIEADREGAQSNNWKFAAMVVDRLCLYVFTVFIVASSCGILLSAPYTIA
Kind of test: cell-based. As to the method: as §2, §1

Usually EC50 stands for the concentration giving half of the maximal effect. For orientation: IC50 means the midpoint of a concentration-inhibition curve.

SMILES strings stand for the structures. “Also recorded” adds a separate entry of the source. Where two headings read alike, the source gives them in different places.

Parascaris sp. ACR-16 N-AChR, sequence (A0A3S9VMQ8 entry or part of it): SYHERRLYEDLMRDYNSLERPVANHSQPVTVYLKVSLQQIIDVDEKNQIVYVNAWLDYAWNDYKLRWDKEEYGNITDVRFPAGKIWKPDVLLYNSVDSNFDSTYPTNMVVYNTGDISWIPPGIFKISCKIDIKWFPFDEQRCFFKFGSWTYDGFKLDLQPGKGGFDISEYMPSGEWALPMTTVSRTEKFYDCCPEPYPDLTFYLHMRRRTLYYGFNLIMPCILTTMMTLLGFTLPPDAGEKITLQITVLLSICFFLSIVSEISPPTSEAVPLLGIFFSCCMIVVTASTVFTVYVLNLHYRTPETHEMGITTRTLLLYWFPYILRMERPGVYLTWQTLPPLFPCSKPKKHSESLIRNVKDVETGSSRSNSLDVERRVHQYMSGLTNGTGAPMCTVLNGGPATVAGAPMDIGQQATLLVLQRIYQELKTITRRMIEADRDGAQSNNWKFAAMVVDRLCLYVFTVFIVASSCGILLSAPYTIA
Parascaris sp. ACR-26/27 M-AChR, sequence (A0A0U2ES58 entry or part of it): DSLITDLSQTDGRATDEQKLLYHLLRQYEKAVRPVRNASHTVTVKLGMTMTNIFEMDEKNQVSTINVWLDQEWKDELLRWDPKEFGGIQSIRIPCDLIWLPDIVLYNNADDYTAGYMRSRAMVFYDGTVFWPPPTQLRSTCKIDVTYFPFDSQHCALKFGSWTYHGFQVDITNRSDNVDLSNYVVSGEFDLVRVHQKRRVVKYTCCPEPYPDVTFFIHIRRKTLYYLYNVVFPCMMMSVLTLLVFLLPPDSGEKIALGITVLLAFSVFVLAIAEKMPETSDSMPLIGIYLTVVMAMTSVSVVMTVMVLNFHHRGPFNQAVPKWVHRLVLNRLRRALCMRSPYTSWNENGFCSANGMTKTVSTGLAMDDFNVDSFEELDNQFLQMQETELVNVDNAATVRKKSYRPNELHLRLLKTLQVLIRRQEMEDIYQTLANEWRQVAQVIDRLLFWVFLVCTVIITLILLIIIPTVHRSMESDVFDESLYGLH
Parascaris sp. ACR-26/27 M-AChR, sequence (A0A0U2ES47 entry or part of it): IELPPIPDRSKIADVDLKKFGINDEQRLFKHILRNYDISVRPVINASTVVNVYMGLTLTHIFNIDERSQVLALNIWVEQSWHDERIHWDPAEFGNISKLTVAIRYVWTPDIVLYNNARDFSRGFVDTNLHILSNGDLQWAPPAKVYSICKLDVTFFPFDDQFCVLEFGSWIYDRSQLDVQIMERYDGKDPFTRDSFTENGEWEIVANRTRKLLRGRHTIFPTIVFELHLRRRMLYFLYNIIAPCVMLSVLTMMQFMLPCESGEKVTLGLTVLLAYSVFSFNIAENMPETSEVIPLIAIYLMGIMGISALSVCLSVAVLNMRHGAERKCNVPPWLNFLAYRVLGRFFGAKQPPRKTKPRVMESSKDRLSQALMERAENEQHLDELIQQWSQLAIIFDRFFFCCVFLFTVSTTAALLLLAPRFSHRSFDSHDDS

As for `CC(=O)OCC[N+](C)(C)C` [ACh, Acetylcholine chloride], the “maximal effect (Rmax), contraction” value in test [1] (obtained with 100 µM ACh) is reported as 1.19 ± 0.051 g. Moreover, the EC50 in test [1] (read-out: EC50 of ACh, muscle flap contraction, control, no carvacrol, n = 5) is 6.08 µM; in test [1] (read-out: log EC50 of ACh, muscle flap contraction (converted)), 6.03 µM; in test [2] (ACh EC50, absence of carvacrol, normalized to 100 µM ACh, n = 6), 25 µM; in test [2] (ACh EC50, continued perfusion of 100 µM carvacrol, n = 5), 12.2 µM; in test [2] (ACh EC50, continued perfusion of 300 µM carvacrol, n = 6) it was 6.6 µM; in test [2] (ACh log EC50, absence of carvacrol, log of EC50 in µM, n = 6) it was 25 µM. Further, the EC50 in test [2] (ACh log EC50, continued perfusion of 100 µM carvacrol, n = 5) is 12.2 µM; in test [2] (ACh log EC50, continued perfusion of 300 µM carvacrol, n = 6), 6.56 µM; in test [3] (ACh EC50, presence of 100 µM carvacrol, n = 6), 5.9 µM; in test [3] (ACh EC50, presence of 300 µM carvacrol, n = 10), 8.2 µM; in test [3] (ACh EC50, without carvacrol, n = 6) it was 6.5 µM; in test [3] (ACh log EC50, presence of 100 µM carvacrol, n = 6), 5.92 µM. Besides, the EC50 in test [3] (ACh log EC50, presence of 300 µM carvacrol, n = 10) is 8.18 µM. Moreover, the “Hill coefficient of ACh concentration-response” value in test [2] (absence of carvacrol) is given as 1.4 ± 0.1; in test [2] (presence of 100 µM carvacrol), 1.7 ± 0.4; in test [2] (presence of 300 µM carvacrol) it was 1.5 ± 0.3; in test [3] (100 µM carvacrol), 2.0 ± 0.3; in test [3] (300 µM carvacrol), 2.1 ± 0.4; in test [3] (without carvacrol), 2.0 ± 0.2. For the same compound, in test [3] (without carvacrol, log of EC50 in µM, n = 6), the “ACh log EC50” value is reported as 0.811 ± 0.028.

For `Cc1ccc(C(C)C)cc1O` [carvacrol], the “inhibitory effect after removal of carvacrol from experimental baths (washing)” value in test [1] (300 µM carvacrol) is “remained even after removal”. Moreover, the “effect on contractions induced by ACh” value in test [1] (300 µM carvacrol, ACh 1 to 100 µM) was “completely abolished; also recorded: fully and irreversibly abolished; also recorded: full inhibition”. Also, the mode of action entry (in test [2]; at A. suum ACR-16 N-AChR; in test [3]) was “non-competitive antagonist” each time. Further, the agonist action result in test [2] (carvacrol perfused alone) is reported as “no agonist action”. The “effect on efficacy of ACh activation (Imax)” value in test [2] (perfusion of 100 and 300 µM carvacrol, p < 0.0001) is “significantly reduced”. In addition, the IC50 was 169.3 ± 1 µM in test [2] (read-out: IC50, inhibition of ACh-elicited current); 36.4 ± 1.3 µM at A. suum ACR-16 N-AChR; 177.8 ± 1.1 µM in test [3]. The “inhibition of the ACh contractile effect” value in test [4] is recorded as at most 49%. Also, the “higher affinity for the A. suum N-AChR over the Parascaris sp. N-AChR” value at A. suum ACR-16 N-AChR (from concentration-inhibition data) is “approximately 5 fold”. In addition, the agonist effect result in test [3] (300 µM carvacrol) was “no agonist effect”. Besides, the entries for the “reduction of ACh maximal response amplitude” value in test [3] (presence of 100 µM carvacrol) and in test [3] (presence of 300 µM carvacrol) were 2 fold and 3 fold, respectively.

These data come from PMC8226574, “Action of Carvacrol on Parascaris sp. and Antagonistic Effect on Nicotinic Acetylcholine Receptors” (Pharmaceuticals, 2021).
